{"source": "patent US9289607B2", "about": "“Urgency therapy with neuromodulation and C-afferent nerve desensitization” (MEDTRONIC, INC., priority 2010, dated 2016)", "format_in_all_cases": "in vivo, Sprague-Dawley rats", "key": {"[1]": {"assay": "Behaviour after subcutaneous capsaicin injection", "method": "(§1) Thirty-two rats were chronically treated with capsaicin or vehicle (e.g., solution without capsaicin added). Capsaicin (Sigma-Aldrich, St. Louis, Mo.) was administered to the rats in a vehicle solution containing approximately 20 milligrams (mg)/milliliters (mL) capsaicin in a mixture of approximately 10% ethanol, approximately 10% Tween 80 and approximately 80% physiological saline. For each of the rats, capsaicin (125 mg/kg) was given subcutaneously in the hindlimb in divided doses on 2 consecutive days: on the first day, a first dose of 25 mg/kg was administered, and, twelve hours later, a second dose of 50 mg/kg was administered, and on the second day, a third dose of 50 mg/kg was administered. Injections were performed under isoflurane anesthesia. Control rats received a corresponding volume of vehicles. Experiments on the effect of neurostimulation on rhythmic bladder contraction were conducted approximately 4 days after injection of the third dose was administered. To evaluate the effectiveness of capsaicin pretreatment, an eye wipe test was performed on each unanesthetized animal just before the experiment. A drop of approximately 100 microgram per milliliter (μg/mL) capsaicin solution was instilled into an eye of the animal and the number of defensive wiping movements was counted. […]"}, "[2]": {"assay": "Eye wipe test of capsaicin pretreatment effectiveness", "settings": "drop of 100 μg/mL capsaicin solution in eye; rats pretreated with capsaicin 125 mg/kg s.c.; 16 rats", "method": "as §1"}, "[3]": {"test_system": "bladder rhythmic contraction", "assay": "Bladder rhythmic contraction with L6 spinal nerve stimulation after capsaicin pretreatment", "method": "Female Sprague-Dawley rats weighing approximately 200-300 grams (g) were anesthetized with urethane (in particular, two injections, approximately 4 min apart, total 1.2 g urethane/kilogram (kg) rat). The anesthetized rats were maintained with a hot-water-circulating heating pad during the studies.\nTo record bladder contractions, a polyethylene cannula (IntraMedic PE50 tubing, Stoelting Co., Wood Dale, Ill.), was placed into the bladder of each of the rats via the urethra and the urethra was ligated to ensure an isovolumetric bladder. The urethral cannula was connected with a T connector and linked with a low volume transducer (ADInstrument MLT0380/D, Colorado Springs, Colo.). The signal was amplified through a DC amplifier (ADInstrument, ML119, Colorado Springs, Colo.). The other end of the T connector was linked to a 20 cubic centimeters (cc) syringe with a perfusion pump.\nTo deliver electrical stimulation, a wire electrode was placed under the L6 spinal nerves of each of the rats bilaterally. The dorsal skin around sacral and thoracic surface was shaved and a dorsal midline incision was made from approximately spinal nerve L3 to S2. A combination of sharp and blunt dissection was used to expose the left L6/S1 posterior interarticular process. The S1 transverse process was visualized and removed, and the L6 nerves were located caudal and medial to the sacroiliac junction and were then exposed distal to their emergence from the intervertebral foramina. Two bared portions of a teflon-coated, 40-gauge, stainless steel wire (Cooner Wire Co., Chatsworth, Calif.) were placed bilaterally under each of the L6 nerve. A silicone adhesive (Kwik-Cast, World Precision Instruments, Inc, Sarasota, Fla.) was applied to cover the wire around the nerve. The muscle and incision were closed with silk suture. The wire electrode and a needle electrode under the skin of the tail served as the stimulating cathode and the indifferent anode, respectively.\nBiphasic pulses having a pulse width of about 0.1 ms and different intensities were used to stimulate the spinal nerve at frequencies ranging from 0.01 Hz to 100 Hz. A Grass S88 stimulator (Grass Technologies, West Warwick, R.I.) with an SIU5 stimulus isolator (Grass Technologies, West Warwick, R.I.) was used to generate stimulus pulses. Electrical stimulation of spinal nerves with pulses of sufficient intensity evoked hind-toe twitches and pelvic floor muscle contractions. In each rat, the motor threshold, defined by the lowest intensity to evoke any of those muscle contractions was tested. The rats with motor threshold over 0.4 mA were excluded from the study. The intensities of stimulation were given either at 0.6 mA or threshold intensity, which was adjusted until the muscle contraction was just discernible in each animal.\nas §1, with “experiment.” for “experiment. A drop of approximately 100 microgram per milliliter (μg/mL) capsaicin solution was instilled into an eye of the animal and the number of defensive wiping movements was counted.”"}, "[4]": {"settings": "capsaicin 125 mg/kg s.c. pretreatment 4 days before, mean control before stimulation, 8 rats, mean±SEM"}, "[5]": {"settings": "capsaicin 125 mg/kg s.c. pretreatment, stimulation approximately 0.6 mA, 0.5 Hz"}}}
{"compound": "COc1cc(CNC(=O)CCCC/C=C/C(C)C)ccc1O", "note": "[capsaicin, Capsaicin]", "values": [{"measurement": "aversive behaviours thereafter", "setting": "[1]; after the first 3-4 hours, capsaicin 125 mg/kg s.c. in divided doses over 2 days", "result": "no aversive behaviors were observed"}, {"measurement": "behaviour following the first capsaicin injection", "setting": "[1]; approximately 3-4 hours after first capsaicin injection (25 mg/kg s.c., hindlimb)", "result": "signs of pain behaviors"}, {"measurement": "reaction in the eye wipe test (defensive wiping movements)", "setting": "[2]", "result": "no reaction"}, {"measurement": "average amplitude of bladder contractions prior to neurostimulation", "setting": "[3]; [4]", "result": "approximately 19.24±1.89 mmHg"}, {"measurement": "mean frequency of bladder contractions prior to neurostimulation", "setting": "[3]; [4]", "result": "approximately 3.19±0.20 contractions per 5 minutes"}, {"measurement": "persistence of inhibition after stimulation was terminated (FIG. 12A)", "setting": "[3]; [5]", "result": "more than 20 minutes"}, {"measurement": "rhythmic bladder contractions during spinal nerve stimulation (FIG. 12A)", "setting": "[3]; [5]", "result": "substantially completely inhibited"}, {"measurement": "bladder contractions with spinal nerve stimulation at threshold intensity (FIG. 12B)", "setting": "[3]; capsaicin 125 mg/kg s.c. pretreatment, threshold intensity about 0.01 mA, about 10 Hz, particularly after termination of stimulation", "result": "attenuated bladder contractions"}, {"measurement": "frequency of the bladder rhythmic contraction", "setting": "[3]; capsaicin approximately 125 mg/kg s.c. pretreatment, stimulation approximately 0.6 mA, six rats, p<0.05 vs vehicle pretreated, two-way ANOVA (FIG. 13A)", "result": "18±14 % of control"}, {"measurement": "mean frequency and amplitude of bladder contractions, capsaicin-treated versus vehicle-treated rats", "setting": "[3]; prior to delivery of neurostimulation", "result": "did not differ"}, {"measurement": "effect on bladder rhythmic contraction of stimulation at threshold intensity (FIG. 13B)", "setting": "[3]; threshold intensity approximately 0.01 mA, believed not statistically significant", "result": "trend of inhibitory effects"}]}
